Laboratory results as given in ChEMBL document CHEMBL4229418, “Design, synthesis and pharmacology of aortic-selective acyl-CoA: Cholesterol O-acyltransferase (ACAT/SOAT) inhibitors” (Bioorg Med Chem, 2018).

Columns and labels:
[1] = Inhibition of SOAT1 in arterial homogenates isolated from 1% cholesterol fed New Zealand white rabbit assessed as reduction in cholesteryl oleate formation incubated for 5 mins in presence of [14C]-oleoyl-CoA and BSA complex by TLC method; type: tissue-based, Oryctolagus cuniculus
[2] = Inhibition of SOAT2 in New Zealand white rabbit intestinal microsomes assessed as reduction in cholesteryl oleate formation incubated for 5 mins in presence of [14C]-oleoyl-CoA and BSA complex by TLC method; set-up: species or system Oryctolagus cuniculus, Intestine
Oryctolagus cuniculus = species on record: Oryctolagus cuniculus; assay: Selectivity ratio of IC50 for inhibition of SOAT2 in New Zealand white rabbit intestinal microsomes to IC50 for inhibition of SOAT1 in arterial homogenates isolated from 1% cholesterol fed New Zealand white rabbit
[3] = target: T1, Sterol O-acyltransferase 1 (Mus musculus, UniProt Q61263); assay: Inhibition of ACAT1 in mouse J774 cells assessed as reduction in esterified cholesterol accumulation after 18 hrs in presence of 25-hydroxycholesterol; type: cell-based
T1 sequence (Q61263 whole entry): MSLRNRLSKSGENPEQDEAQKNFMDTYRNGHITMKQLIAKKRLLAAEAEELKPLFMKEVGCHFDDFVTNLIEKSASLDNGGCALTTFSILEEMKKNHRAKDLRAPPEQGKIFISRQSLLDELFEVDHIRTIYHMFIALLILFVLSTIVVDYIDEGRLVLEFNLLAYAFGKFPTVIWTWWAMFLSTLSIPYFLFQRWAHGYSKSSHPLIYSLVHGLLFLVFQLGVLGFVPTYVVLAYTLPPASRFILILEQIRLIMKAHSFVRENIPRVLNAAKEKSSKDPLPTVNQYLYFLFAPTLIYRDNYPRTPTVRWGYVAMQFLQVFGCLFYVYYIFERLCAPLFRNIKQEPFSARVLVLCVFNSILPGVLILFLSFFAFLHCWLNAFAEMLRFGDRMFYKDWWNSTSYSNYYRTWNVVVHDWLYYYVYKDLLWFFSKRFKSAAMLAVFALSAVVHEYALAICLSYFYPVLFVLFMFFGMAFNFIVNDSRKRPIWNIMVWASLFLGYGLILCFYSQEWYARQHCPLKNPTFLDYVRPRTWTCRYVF

Compound | IC50 [1] [µM] | IC50 [2] [µM] | Ratio IC50 (Oryctolagus cuniculus) | IC50 [3] [µM]
CC(C)c1cccc(C(C)C)c1NC(=O)CCCCSc1nc2ccccc2s1 | 0.062 | 0.13 | 2.1 | 57
CC(C)c1cccc(C(C)C)c1NC(=O)CCCCCCSc1nc2ccccc2s1 | 0.007 | 0.028 | 4 | 0.41
CC(C)c1cccc(C(C)C)c1NC(=O)CCCCCSc1nc2cccc(CO)c2o1 | 0.056 | 0.11 | 2 | 2.2
CC(C)c1cccc(C(C)C)c1NC(=O)CCCCCSc1nc2cc(CO)ccc2o1 | 0.064 | 0.074 | 1.2 | 1.1
CC(C)c1cccc(C(C)C)c1NC(=O)CCCCCSc1nc2c(CO)cccc2o1 | 0.045 | 0.18 | 4 | 11
CCCCSc1nc2ccccc2o1 | 26 |  |  | 
CC(C)c1cccc(C(C)C)c1NC(=O)CCCCCSc1nc2cc(CN(C)C)ccc2o1 | 0.25 | 0.17 | 0.7 | 1.8
CC(C)c1cccc(C(C)C)c1NC(=O)CCCCCSc1nc2ccc(C(=O)O)cc2o1 | 2.1 | 5 | 2.4 | 4.4
CC(C)c1cccc(C(C)C)c1NC(=O)CCCCCSc1nc2cnccc2o1 | 0.045 | 0.15 | 3.3 | 2.8
CC(C)c1cccc(C(C)C)c1NC(=O)CCSc1nc2ccccc2s1 | 0.004 | 0.019 | 4.8 | 0.28
CC(C)c1cccc(C(C)C)c1NC(=O)CCCCCSc1nc2cc(C(=O)O)ccc2o1 | 3.6 | 4.5 | 1.3 | 11
CC(C)c1cccc(C(C)C)c1NC(=O)CCCCCSc1nc2ccncc2o1 | 0.041 | 0.16 | 3.9 | 4.1
Cc1ccc2nc(SCCCCCC(=O)Nc3c(C(C)C)cccc3C(C)C)oc2c1 | 0.034 | 0.11 | 3.2 | 0.4
CC(C)c1cccc(C(C)C)c1NC(=O)CCCCSc1nc2ccccc2[nH]1 | 0.39 | 0.43 | 1.1 | 5.2
CCCCCCCN(CCCCCSc1nc(-c2ccccc2)c(-c2ccccc2)[nH]1)C(=O)Nc1ccc(F)cc1F [LECIMIBIDE] | 0.036 | 0.02 |  | 0.82
COC(=O)c1cccc2nc(SCCCCCC(=O)Nc3c(C(C)C)cccc3C(C)C)oc12 | 0.032 | 0.33 | 10.3 | 0.1
CC(C)c1cccc(C(C)C)c1NC(=O)CCCCCCCCSc1nc2ccccc2s1 | 0.004 | 0.018 | 4.5 | 0.043
CC(C)c1cccc(C(C)C)c1NC(=O)CCCCSc1nc2ccccc2o1 | 0.084 | 0.22 | 2.6 | 3.6
CC(C)c1cccc(C(C)C)c1NC(=O)CCCSc1nc2ccccc2[nH]1 | 0.3 | 0.8 | 2.7 | 3.1

Compound | IC50 [1] [µM] | IC50 [2] [µM] | Ratio IC50 (Oryctolagus cuniculus) | IC50 [3] [µM]
CC(C)c1cccc(C(C)C)c1NC(=O)CCCCCSc1nc2ccc(O)cc2o1 | 0.053 | 0.081 | 1.5 | 2.3
CC(C)c1cccc(C(C)C)c1NC(=O)CCCCCSc1nc2c(N(C)C)cccc2o1 | 0.029 | 0.12 | 4.1 | 0.5
CC(C)c1cccc(C(C)C)c1NC(=O)CCCSc1nc2ccccc2o1 | 0.036 |  |  | 2.8
CC(C)c1cccc(C(C)C)c1NC(=O)CCCCCSc1nc2c(O)cccc2o1 | 0.24 | 0.24 | 1 | 8.8
CC(C)c1cccc(C(C)C)c1NC(=O)CCCCCSc1nc2ccc(N(C)C)cc2o1 | 0.015 | 0.094 | 6.3 | 1.1
CSc1nc2ccccc2o1 | 31 |  |  | 
CC(C)c1cccc(C(C)C)c1NC(=O)CCCCCSc1nc2ncccc2o1 | 0.025 | 0.14 |  | 
CC(C)c1cccc(C(C)C)c1NC(=O)CCCCCSc1nc2ccccc2o1 | 0.01 | 0.065 | 6.5 | 1.9
CCCCCC(=O)Nc1c(C(C)C)cccc1C(C)C | 0.17 |  |  | 
CC(C)c1cccc(C(C)C)c1NC(=O)CCCCCSc1nc2cc(O)ccc2o1 | 0.043 | 0.12 | 2.8 | 2.8
CC(C)c1cccc(C(C)C)c1NC(=O)CCCCCCCCSc1nc2ccccc2[nH]1 | 0.014 | 0.031 | 2.2 | 0.3
CC(C)c1cccc(C(C)C)c1NC(=O)CSc1nc2ccccc2o1 | 0.035 | 0.2 | 5.7 | 
CC(C)c1cccc(C(C)C)c1NC(=O)CCCCCSc1nc2ccc(CN(C)C)cc2o1 | 0.13 | 0.37 | 2.8 | 2.4
CC(C)c1cccc(C(C)C)c1NC(=O)CCCCCCCCCCCCCCSc1nc2ccccc2[nH]1 | 0.12 | 0.044 | 0.4 | 1.7
CC(C)c1cccc(C(C)C)c1NC(=O)CCCCCSc1nc2cc(N(C)C)ccc2o1 | 0.043 | 0.25 | 5.8 | 0.5
CC(C)c1cccc(C(C)C)c1NC(=O)CCCCCSc1nc2ccccc2s1 | 0.026 | 0.033 | 1.3 | 5.2
CC(C)c1cccc(C(C)C)c1NC(=O)CCCCCCSc1nc2ccccc2[nH]1 | 0.024 | 0.034 | 1.4 | 0.048
CC(C)c1cccc(C(C)C)c1NC(=O)CCCCCSc1nc2ccccc2[nH]1 | 0.026 | 0.038 | 1.5 | 0.35
CC(C)c1cccc(C(C)C)c1NC(=O)CCCCCCCSc1nc2ccccc2s1 | 0.007 | 0.036 | 5.1 | 0.059

Compound | IC50 [1] [µM] | IC50 [2] [µM] | Ratio IC50 (Oryctolagus cuniculus) | IC50 [3] [µM]
CC(C)c1cccc(C(C)C)c1NC(=O)CCCCCSc1nc2cc(C(F)(F)F)ccc2o1 | 0.028 | 0.14 | 5 | 0.1
COC(=O)c1ccc2nc(SCCCCCC(=O)Nc3c(C(C)C)cccc3C(C)C)oc2c1 | 0.029 | 0.11 | 3.8 | 0.5
CC(C)c1cccc(C(C)C)c1NC(=O)CCCCCSc1nc2cccnc2o1 | 0.024 | 0.036 | 1.5 | 3
CC(C)c1cccc(C(C)C)c1NC(=O)CCCCCCCCCSc1nc2ccccc2[nH]1 | 0.019 | 0.029 | 1.5 | 0.46
CC(C)c1cccc(C(C)C)c1NC(=O)CCSc1nc2ccccc2o1 | 0.015 |  |  | 
CC(C)c1cccc(C(C)C)c1NC(=O)CCCCCSc1nc2c(C(=O)O)cccc2o1 |  |  |  | 11
CC(C)c1cccc(C(C)C)c1NC(=O)CCCCCCCCCCCCCCSc1nc2ccccc2s1 | 0.088 | 0.093 | 1.1 | 1.8
CC(C)c1cccc(C(C)C)c1NC(=O)CCCCCCCCCSc1nc2ccccc2s1 | 0.005 | 0.011 | 2.2 | 0.57
CC(=O)Nc1c(C(C)C)cccc1C(C)C | 8.6 |  |  | 
CC(C)c1cccc(C(C)C)c1NC(=O)CCCCCSc1nc2c(CN(C)C)cccc2o1 | 0.042 | 0.32 | 7.6 | 
CC(C)c1cccc(C(C)C)c1NC(=O)CSc1nc2ccccc2[nH]1 | 2.3 | 5.8 | 2.5 | 0.18
COC(=O)c1ccc2oc(SCCCCCC(=O)Nc3c(C(C)C)cccc3C(C)C)nc2c1 | 0.07 | 0.21 | 3 | 
CC(C)c1cccc(C(C)C)c1NC(=O)CCCCCCCCCCCCCCSc1nc2ccccc2o1 | 0.04 | 0.044 | 1.1 | 0.41
CC(C)c1cccc(C(C)C)c1NC(=O)CCCCCSc1nc2cccc(C(=O)O)c2o1 |  |  | 1 | 11
CC(C)c1cccc(C(C)C)c1NC(=O)CCCSc1nc2ccccc2s1 | 0.028 | 0.1 | 3.6 | 
CC(C)c1cccc(C(C)C)c1NC(=O)CCCCCCCSc1nc2ccccc2[nH]1 | 0.018 |  | 1.7 | 0.03
CC(C)c1cccc(C(C)C)c1NC(=O)CSc1nc2ccccc2s1 | 0.031 | 0.047 | 1.5 | 0.18
CC(C)c1cccc(C(C)C)c1NC(=O)CCCCCCSc1nc2ccccc2o1 | 0.005 | 0.03 | 6 | 
